According to patent US11603380B2 (Centre national de la recherche scientifique, priority 2018, dated 2023):
Like-named read-outs stand apart in the source and are kept apart here.

Legend:
Vaccinia Virus TK− = assay type: cell-based
HSV-2 (G) = assay: microbe, parasite or virus in culture; assay type: cell-based, herpes simplex virus 2; details: read-out: EC50 HSV-2 (G)
HEL cells = details: read-out: Cytotoxicity CC50; concentration reducing cell growth by 50%; HCMV/VZV table
[1] = tested on: herpes simplex virus 1 (HSV-1) (KOS); assay: microbe, parasite or virus in culture; assay type: cell-based; details: read-out: EC50 HSV-1 (KOS)
[2] = tested on: VZV-BAC-Luc in human fetal skin; assay: Human skin organ culture model of VZV replication; assay type: cell-based, varicella zoster virus
[3] = tested on: human cytomegalovirus (HCMV) (Davis); assay: microbe, parasite or virus in culture; assay type: cell-based; details: read-out: EC50 HCMV (Davis)
Myxomatosis Virus (MYXV) = assay type: cell-based
[4] = Weight and condition of mice during treatment in the SCID-Hu model
Adeno virus = assay: Virus infection assay, Adeno virus, permissive cells; assay type: cell-based
Description: (§1) 2. Virus Infection (Protocols for: Adeno Virus, Cytomegalo Virus, Poxvirus, Myxo Virus, Equine Herpes Virus)
(§2) Cognate permissive cell lines were used for each virus infection assay.
(§3) Cells were grown in DMEM without phenol red (Sigma-Aldrich) 10% SVF, Pen-strep, 1× sodium pyruvate, 1× Glutamax.
(§4) Virus infection was carried out on permissive cells seeded in either in 96 wells plate or in 6 well plates, in duplicate at one or two MOI (multiplicity of infection) and 7 concentrations of LA6. • Day 0: cells seeded at 10 k per well in Corning Glass Bottom 96 well plates in 200 μl of DMEM without phenol red or 200 k in 6 well plates. • Day 1: cells were treated with LA6 (from 1 to 0.0037 μM by […] dilutions) in duplicate and were infected at different MOI according to the tested virus • Day 2 to day 7: cells were fixed with Formalin 10 min at room temperature. Cells were washed with 200 μL PBS and 100 μL PBS/Hoechst® 33342 (1/1000) per well. 96 well plates were kept at 4° C. in the dark until data acquisition Image acquisition and analysis for high content quantification was performed on a Thermo Cellomics Arrayscan™ VTI microscope using a modified compartmental analysis algorithm for fluorescent virus. For unmodified virus, ECP progression or plaque count was determined visually by double blind analysis.

HSV-1 (KOS ACV) TK− = assay: microbe, parasite or virus in culture; assay type: cell-based, herpes simplex virus 1; details: read-out: EC50 HSV-1 (KOS ACV) TK−
Vaccinia Virus = assay: microbe, parasite or virus in culture; assay type: cell-based; details: read-out: EC50 Vaccinia Virus
[5] = tested on: HSV-1, HSV-2, HSV-1 (TK−), VV, FHV; assay type: cell-based
[6] = tested on: VZV-BAC-Luc strain (wild type); assay: microbe, parasite or virus in culture; assay type: cell-based, varicella zoster virus; details: ARPE-19 cells, 3 days, bioluminescence, estimated by interpolation; read-out: approximate EC50, wild type VZV
[7] = tested on: human cytomegalovirus (HCMV) (AD-169); assay: microbe, parasite or virus in culture; assay type: cell-based; details: read-out: EC50 HCMV (AD-169)
VZV-BAC-Luc = assay: SCID-Hu mouse model of VZV replication (human fetal skin xenografts); assay type: in vivo, CB.17 scid/beige male mice
Description: SCID-Hu mouse model of VZV replication. CB.17 scid/beige male mice (Charles River) were implanted subcutaneously with human fetal skin (the same type of specimens used for the skin organ culture assay). After 3-4 weeks engraftment, the skin implants were inoculated with VZV-BAC-Luc or VZV-ORF57-Luc. The mice were divided into groups (N=10-13) for treatment or controls. The positive control antiviral drug was cidofovir, 10 mg/kg/day given by intraperitoneal injection. The negative control was the vehicle Cremophor-DMSO-saline (1:1:8) given by subcutaneous injection. The treatment groups were 5 in Cremophor-DMSO-saline, 26, 13, or 6.5 mg/kg/day, given by subcutaneous injection. Treatment began 2 hours or 3 days after the inoculation surgery and continued daily or alternating days for up to 9 days. The mice were scanned in the IVIS-200 instrument daily from Day 1-10. The mice were weighed before the start of the study and daily during the treatment phase.
Statistical analysis: The results were analyzed for statistical significance by Student's t test or by ANOVA and Dunnett's post hoc test of multiple comparisons (GraphPad Prism).
CB.17 scid/beige male mice were implanted subcutaneously with human fetal skin (the same type of specimens used for the skin organ culture assay). After 3-5 weeks engraftment period, the skin implants were inoculated with VZV-BAC-Luc. The mice were divided into 3 groups of 10-13 mice: vehicle (Cremophor-DMSO-saline 1:1:8), cidofovir 10 mg/kg in saline, and 5 26 mg/kg in Cremophor-DMSO-saline. 5 at 26 mg/kg is the molar equivalent dose to cidofovir 10 mg/kg. Cidofovir was given by the intraperitoneal route, once daily, from Days 0-8. Vehicle and 5 were given by the subcutaneous route, once daily, from Days 0-8. The mice were scanned in the IVIS-200 instrument daily from Day 1-9 and the Total Flux values indicated VZV-infected cells in the skin xenografts (FIG. 3). […] VZV grew normally in the Vehicle group.
In addition, a dose-ranging and delayed treatment assay was included to determine the lowest effective dose (FIGS. 5A and 5B). As before, 5 26 mg/kg was given once daily, by the subcutaneous route, from Days 0-6. This group was compared to Vehicle (Cremophor-DMSO-saline). In the dose ranging assay, 5 high dose (26 mg/kg), medium dose (13 mg/kg) or low dose (6.5 mg/kg) was given once daily, by the subcutaneous route, from Days 3-9. The treatment phase was delayed to Day 3 because this is more clinically relevant.

[8] = tested on: varicella-zoster virus (VZV) TK+ (OKA); assay: microbe, parasite or virus in culture; assay type: cell-based; details: read-out: EC50 VZV TK+ (OKA)
HBV = assay: Anti-HBV activity, Huh7 cells transfected with pHBV1.1×, intra-capsid viral DNA by real-time PCR; assay type: cell-based, Hepatitis B virus; details: 7 days, read-out: IC50 (HBV replication) (converted)
Equine Herpes V 1 = assay type: cell-based, Equine herpes virus
Feline Herpes Virus = assay: organism not typed; assay type: cell-based; details: read-out: EC50 Feline Herpes Virus
[9] = tested on: VZV-BAC-Luc TK− strain (ACV^R); assay: microbe, parasite or virus in culture; assay type: cell-based, varicella zoster virus; details: ARPE-19 cells, 3 days, bioluminescence, estimated by interpolation; read-out: approximate EC50, ACV^R VZV
Equine Herpes V 4 = assay: Virus infection assay, Equine Herpes V 4, permissive cells; assay type: cell-based
Description: as §1, §2, §3, §4

Question: Which EC50 (Vaccinia Virus TK−; read-out: EC50 Vaccinia Virus TK−) does the source give for “[(Z)-2-[(2,6-diaminopyrimidin-4-yl)oxymethyl]-4-[3-hexadecoxypropoxy (isopropoxycarbonyloxymethoxy)phosphoryl]but-2′-enyl]acetate [Compound (5)]” here?
Answer: < 30 nM

Question: What about the EC50 (Vaccinia Virus TK−; read-out: EC50 vaccicnia virus TK-) of the same substance?
Answer: < 30 nM

Question: What about the EC50 (HSV-2 (G)) of the same substance?
Answer: 15 nM

Question: What about the CC50 (HEL cells) of the same substance?
Answer: 660 nM

Question: And the EC50 [1]?
Answer: 43 ± 37 nM

Question: What about the “VZV yield in skin organ culture compared to vehicle” value ([2]; Day 11, cidofovir 5 μM, 5 at 1 and 5 μM (p<0.0001 vs vehicle)) of the same substance?
Answer: effective

Question: And the “concentration preventing VZV spread in skin” value ([2]; skin organ culture)?
Answer: ≥ 1 µM

Question: What about the EC50 [3] of the same substance?
Answer: 700 nM

Question: And the EC50 (Myxomatosis Virus (MYXV))?
Answer: 51 nM

Question: What about the “change in weight during the treatment phase” value ([4]; first study, Days 0-8, 5 26 mg/kg sc, cidofovir 10 mg/kg ip) of the same substance?
Answer: did not cause weight loss

Question: And the “overt toxicity (weight and condition of the mice)” value ([4]; repeat and dose-ranging study, 6.5-26 mg/kg sc)?
Answer: did not cause overt toxicity

Question: And the EC50 (Adeno virus)?
Answer: < 37 nM

Question: And the EC50 (Adeno virus; text statement)?
Answer: < 37 nM

Question: And the EC50 (HSV-1 (KOS ACV) TK−)?
Answer: 8 ± 2 nM

Question: And the EC50 (Vaccinia Virus)?
Answer: 115 ± 110 nM

Question: What about the “activity level against HSV-1, HSV-2, HSV-1 (TK−), VV, FHV” value [5] of the same substance?
Answer: micromolar and sub-micromolar activities

Question: What about the EC50 ([5]; read-out: EC50 against both tested viruses) of the same substance?
Answer: < 350 nM

Question: And the EC50 [6]?
Answer: ~10 nM

Question: And the “Cytotoxicity MCC” value (HEL cell cultures)?
Answer: 60 µM

Question: And the EC50 [7]?
Answer: 1790 nM

Question: What about the “antiviral effect, delayed treatment, low dose” value (VZV-BAC-Luc; 6.5 mg/kg once daily subcutaneous Days 3-9, yield Day 10 p=0.029) of the same substance?
Answer: equally effective

Question: What about the “antiviral effect, delayed treatment, medium dose” value (VZV-BAC-Luc; 13 mg/kg once daily subcutaneous Days 3-9, yield Day 10 p=0.029) of the same substance?
Answer: equally effective

Question: And the “Virus yield on Day 7 vs Vehicle” value (VZV-BAC-Luc; 26 mg/kg once daily subcutaneous Days 0-6, p=0.008)?
Answer: significantly less than the Vehicle group

Question: What about the “antiviral effect, delayed treatment, high dose” value (VZV-BAC-Luc; 26 mg/kg once daily subcutaneous Days 3-9, yield Day 10 p=0.029) of the same substance?
Answer: also effective

Question: What about the “VZV spread / virus yield (Total Flux) vs Vehicle” value (VZV-BAC-Luc; once daily Days 0-8, 5 26 mg/kg subcutaneous, cidofovir 10 mg/kg intraperitoneal, yield compared Day 9, p=0.0051) of the same substance?
Answer: prevented VZV spread

Question: And the “low dose effectively preventing VZV spread” value (VZV-BAC-Luc; once daily subcutaneous Days 3-9)?
Answer: 6.5 mg/kg

Question: What about the EC50 [8] of the same substance?
Answer: 3.5 nM

Question: What about the IC50 (HBV) of the same substance?
Answer: 400 nM

Question: What about the EC50 (Equine Herpes V 1) of the same substance?
Answer: < 125 nM

Question: And the EC50 (Feline Herpes Virus)?
Answer: 350 nM

Question: And the EC50 [9]?
Answer: ~10 nM

Question: What about the EC50 (Equine Herpes V 4) of the same substance?
Answer: < 125 nM
